The target of the assay is T1, GR (Homo sapiens, UniProt P04150).
T1 sequence (P04150 1-777): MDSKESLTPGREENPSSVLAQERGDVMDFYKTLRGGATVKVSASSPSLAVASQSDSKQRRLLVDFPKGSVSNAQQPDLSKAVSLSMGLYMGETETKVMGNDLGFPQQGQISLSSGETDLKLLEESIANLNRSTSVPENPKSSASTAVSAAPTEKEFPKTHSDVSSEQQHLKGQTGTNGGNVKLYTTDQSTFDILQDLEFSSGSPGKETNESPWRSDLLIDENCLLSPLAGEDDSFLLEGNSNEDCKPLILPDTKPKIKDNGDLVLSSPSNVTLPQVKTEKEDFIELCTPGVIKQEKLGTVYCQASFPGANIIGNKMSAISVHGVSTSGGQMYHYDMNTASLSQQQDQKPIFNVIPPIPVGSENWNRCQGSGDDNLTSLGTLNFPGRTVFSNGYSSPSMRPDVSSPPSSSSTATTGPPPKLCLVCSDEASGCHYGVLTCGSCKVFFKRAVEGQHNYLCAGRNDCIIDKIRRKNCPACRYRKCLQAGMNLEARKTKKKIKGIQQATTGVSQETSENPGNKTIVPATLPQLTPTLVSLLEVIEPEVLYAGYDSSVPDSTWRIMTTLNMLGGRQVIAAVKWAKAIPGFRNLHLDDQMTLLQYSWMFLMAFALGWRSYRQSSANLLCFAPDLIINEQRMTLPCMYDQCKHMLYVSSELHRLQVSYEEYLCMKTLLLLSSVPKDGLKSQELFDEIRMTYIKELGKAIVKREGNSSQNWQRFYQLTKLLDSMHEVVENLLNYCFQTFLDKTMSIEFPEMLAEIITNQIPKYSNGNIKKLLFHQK
Nature of the assay: Transrepression Assay (GITAR), TNFα-β-lactamase reporter, U937 cells. On the set-up: U937 cells contain an endogenous glucocorticoid receptor (GR); endogenous in cells; host or cells: U937 cells stably transfected with the TNF-alpha promoter beta-lactamase reporter. It is filed as cell-based. An excerpt:
This assay assesses the ability of test compounds to control transcription from the TNFα-β-lactamase reporter gene in U937 cells, a human myelomonocytic leukemia cell line that naturally expresses the human GR. The assay measures compound dependent-repression of the TNFa promoter linked to a reporter gene.
The human U937 cells that had been stablely transfected with the TNF-α promoter driving […] are used for this assay. U937 cells contain an endogenous glucocorticoid receptor (GR). […] 50,000 cells/well are plated in 96 well black-walled plates the day of assay. Test compounds are added 10 μL/well, and cells are incubated at 37° C. for 30˜45 min. For assaying compounds, first dilute 1:10 in DMSO to make 1 mM, then further dilute 1:100 in medium to make 10× stock prior to adding to the cells. Add 50 ng/ml PMA (Sigma, cat#P8139) 10 μL/well to a final concentration 5 ng/ml, and 1 μg/ml LPS (Sigma, cat#L4130) 10 μL/well to a final concentration 100 ng/ml. Incubate cells at 37° C. overnight for ˜18 hr. PMA is stored frozen as 100 μg/ml stock in DMSO. Dilute 1:10 in DMSO for a working stock of […] and store at −20 C. For assaying, dilute the 10 μg/ml working stock 1:200 in medium to make a 10× solution (50 ng/ml). Store frozen LPS at 1 mg/ml in PBS, dilute 1:1000 in medium to make 10× (1 μg/ml) for the assay. Add 6× loading buffer (CCF2-AM) 20 μL/well, and incubate at room temperature for 70˜90 min. […] The activity repressed by 100 nM dexamethasone alone is set as 100% activity.

[1] abbreviates: U937 cells, inflection point, read-out: Transrepression U937 Cells GITAR IP.
The mark [2] stands for this setting: U-937, U937 cells, activity repressed by 100 nM dexamethasone set as 100%, read-out: Transrepression U937 Cells GITAR Emax.
Where [3] appears, read: U937 cells, activity repressed by 100 nM dexamethasone set as 100%.
Where [4] appears, read: Table 4, literature compounds, read-out: GITAR IP.
Setting [5] is: U-937, Table 4, literature compounds, read-out: GITAR EMAX.

Data on 22 compounds can be found in US20120214846A1, “HEXAHYDROCYCLOPENTYL[F]INDAZOLE PYRIDYL ETHANOLS AND DERIVATIVES THEREOF AS SELECTIVE GLUCOCORTICOID RECEPTOR MODULATORS” (MERCK SHARP & DOHME CORP, priority 2009, published 2012).

Where two headings read alike, the source gives them in different places.

With `Cc1cccnc1C(O)C[C@]1(O)CCC2=Cc3c(cnn3-c3ccc(F)cc3)C[C@@]21C` (single isomer, unassigned) [Example 1a], the EC50 under setting [1] was determined as 95.2 nM. Moreover, under setting [2], the Emax was 71.3%.

Take `COc1ccnc(C(O)C[C@]2(O)CCC3=Cc4c(cnn4-c4ccc(F)cc4)C[C@@]32C)c1` (stereo partly drawn) [Example 3, (4αS,5R)-1-(4-fluorophenyl)-5-[2-hydroxy-2-(4-methoxypyridin-2-yl)ethyl]-4α-methyl-1,4,4α,5,6,7-hexahydrocyclopenta[f]indazol-5-ol]: under setting [1], the EC50 amounted to 111 nM. In addition, the Emax under setting [2] turned out to be 81.3%.

Turning to `C[C@]12Cc3cnn(-c4ccc(F)cc4)c3C=C1CC[C@@]2(O)CC(O)c1ccccn1` (single isomer, unassigned) [Example 2b], the “Transrepression U937 Cells GITAR Emax” value under setting [3] came out at 68.6%. Moreover, under setting [1], the EC50 was determined as 128 nM.

`C[C@]12Cc3cnn(-c4ccc(F)cc4)c3C=C1CCC[C@@H]2[C@@H](O)Cc1ccccc1` [Ex. 22 WO 03/086294 A2, reference compound]: under setting [4], the EC50 is 242 nM. Besides, under setting [5], the Emax is 76.8%.

Turning to `C[C@]12Cc3cnn(-c4ccc(F)cc4)c3C=C1CC[C@@]2(O)CC(O)c1cc(Cl)ccn1` (single isomer, unassigned) [Example 8b], the “Transrepression U937 Cells GITAR Emax” value under setting [3] is given as 91.1%. Further, under setting [1], the EC50 turned out to be 23.7 nM.

In the case of `C[C@]12Cc3cnn(-c4ccc(F)cc4)c3C=C1CC[C@@]2(O)C#Cc1ccccc1` [Ex. 1 WO 04/075840 A2, reference compound], the EC50 under setting [4] is 1660 nM. Besides, the Emax under setting [5] came to 12.8%.

Take `C[C@]12Cc3cnn(-c4ccc(F)cc4)c3C=C1CC[C@@]2(O)CC(O)c1ccc(F)cn1` (single isomer, unassigned) [Example 7b]: under setting [3], the “Transrepression U937 Cells GITAR Emax” value is 83.0%. The EC50 under setting [1] stood at 248 nM.

With `C[C@]12Cc3cnn(-c4ccc(F)cc4)c3C=C1CC[C@@]2(O)CC(O)c1cc(Cl)ccn1` (single isomer, unassigned) [Example 8a], the EC50 under setting [1] was determined as 96.7 nM. Moreover, under setting [2], the maximal response (Emax) is 77.9%.

For `C[C@]12Cc3cnn(-c4ccc(F)cc4)c3C=C1CC[C@@]2(O)CC(O)c1cc(C(F)(F)F)ccn1` (single isomer, unassigned) [Example 5b], the “Transrepression U937 Cells GITAR Emax” value under setting [3] came to 75.6%. Under setting [1], the EC50 was 145 nM.

`Cc1ccnc(C(O)C[C@]2(O)CCC3=Cc4c(cnn4-c4ccc(F)cc4)C[C@@]32C)c1` (stereo partly drawn) [Example 11, (4αS,5R)-1-(4-fluorophenyl)-5-[2-hydroxy-2-(4-methylpyridin-2-yl)ethyl]-4α-methyl-1,4,4α,5,6,7-hexahydrocyclopenta[f]indazol-5-ol]: the EC50 under setting [1] is 47.8 nM. Further, the Emax under setting [2] was found to be 69.1%.

For the compound `C[C@]12Cc3cnn(-c4ccc(F)cc4)c3C=C1CC[C@@]2(O)CC(O)c1cc(C#N)ccn1` (stereo partly drawn) [Example 9, 2-{2-[(4αS,5R)-1-(4-fluorophenyl)-5-hydroxy-4α-methyl-1,4,4α,5,6,7-hexahydrocyclopenta[f]indazol-5-yl]-1-hydroxyethyl}pyridine-4-carbonitrile], the EC50 under setting [1] worked out at 48 nM. In addition, the Emax under setting [2] was 74.9%.

With `C[C@]12Cc3cnn(-c4ccc(F)cc4)c3C=C1CC[C@@]2(O)CC(O)c1cc(Br)ccn1` (single isomer, unassigned) [Example 10b], under setting [3], the “Transrepression U937 Cells GITAR Emax” value amounted to 64.3%. Also, the EC50 under setting [1] came to 48 nM.

Consider `C[C@]12Cc3cnn(-c4ccc(F)cc4)c3C=C1CC[C@@]2(O)CC(O)c1cc(C(F)(F)F)ccn1` (single isomer, unassigned) [Example 5a], for which the EC50 under setting [1] stood at 67.5 nM. The Emax under setting [2] turned out to be 89.1%.

With `C[C@]12Cc3cnn(-c4ccc(F)cc4)c3C=C1CC[C@@]2(O)CC(O)c1ncccc1F` (stereo partly drawn) [Example 4, (4αS,5R)-1-(4-fluorophenyl)-5-[2-(3-fluoropyridin-2-yl)-2-hydroxyethyl]-4α-methyl-1,4,4α,5,6,7-hexahydrocyclopenta[f]indazol-5-ol], under setting [1], the EC50 is 360 nM. Besides, the Emax under setting [2] worked out at 70.6%.

In the case of `C[C@]12Cc3cnn(-c4ccc(F)cc4)c3C=C1CCC[C@@H]2[C@@H](O)c1ccccc1` [Ex. 35 WO 03/86294 A2, reference compound], the EC50 under setting [4] was determined as 200 nM. Further, the maximal response (Emax) under setting [5] was determined as 78.8%.

Turning to `C[C@]12Cc3cnn(-c4ccc(F)cc4)c3C=C1CCC[C@@H]2[C@@H](O)CCc1ccccc1` [Ex. 30 WO 03/086294 A2, reference compound], the EC50 under setting [4] came to 165 nM. In addition, the Emax under setting [5] stood at 82.9%.

For `C[C@]12Cc3cnn(-c4ccc(F)cc4)c3C=C1CC[C@@]2(O)CC(O)c1cc(Br)ccn1` (single isomer, unassigned) [Example 10a], under setting [3], the “Transrepression U937 Cells GITAR Emax” value is 97.5%. Moreover, the EC50 under setting [1] is 230 nM.

Turning to `C[C@]12Cc3cnn(-c4ccc(F)cc4)c3C=C1CC[C@@]2(O)CC(O)c1ccccn1` (single isomer, unassigned) [Example 2a], under setting [1], the EC50 turned out to be 237 nM. Under setting [2], the Emax is 63.5%.

Turning to `C[C@]12Cc3cnn(-c4ccc(F)cc4)c3C=C1CC[C@@]2(O)CC(O)c1ccc(C(F)(F)F)cn1` (stereo partly drawn) [Example 6, (4αS,5R)-1-(4-fluorophenyl)-5-{2-hydroxy-2-[5-(trifluoromethyl)pyridin-2-yl]ethyl}-4α-methyl-1,4,4α,5,6,7-hexahydrocyclopenta[f]indazol-5-ol], the EC50 under setting [1] is 344 nM. Further, the Emax under setting [2] was determined as 76.2%.

Consider `C[C@]12Cc3cnn(-c4ccc(F)cc4)c3C=C1CC[C@@]2(O)CC(O)c1ccc(F)cn1` (single isomer, unassigned) [Example 7a], for which the EC50 under setting [1] was determined as 441 nM. The maximal response (Emax) under setting [2] was 75.2%.

In the case of `Cc1cccnc1C(O)C[C@]1(O)CCC2=Cc3c(cnn3-c3ccc(F)cc3)C[C@@]21C` (single isomer, unassigned) [Example 1b], under setting [3], the “Transrepression U937 Cells GITAR Emax” value is on record as 58.3%. Also, the EC50 under setting [1] worked out at 233 nM.

With `CO[C@@]1(CCc2ccccc2Cl)CCC2=Cc3c(cnn3-c3ccc(F)cc3)C[C@@]21C` [Ex. 103 WO 04/075840 A2, reference compound], the EC50 under setting [4] was 191 nM. The Emax under setting [5] stood at 93.3%.
